Source: PubChem BioAssay (NCI)
“And” between values parts separate entries of the source, which are not always exact repeats. Equal values may be shown once.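 All cell lines were grown in 96-well plates and treated with compound for 48 hours. Here, GI50 denotes the concentration required for 50% inhibition of growth. TGI denotes the concentration required for complete inhibition of growth.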

Experiments:
Test in all cases: growth of human tumour cells (NCI), 48 h
M14 melanoma = test system: M14 melanoma
CAKI-1 renal = test system: CAKI-1 renal
SF-539 CNS = test system: SF-539 CNS
T-47D breast = test system: T-47D breast
HOP-62 NSCLC = test system: HOP-62 NSCLC
MDA-MB-231 breast = test system: MDA-MB-231 breast
DU-145 prostate = test system: DU-145 prostate
NCI/ADR-RES ovarian = test system: NCI/ADR-RES ovarian
SNB-75 CNS = test system: SNB-75 CNS
SR leukemia = test system: SR leukemia

CCOC(=O)c1cnc(-n2[nH]c(C)c(CCO)c2=O)[nH]c1=O
TGI (M14 melanoma): > 100 µM
TGI (CAKI-1 renal): > 100 µM
TGI (SF-539 CNS): > 100 µM
TGI (T-47D breast): > 100 µM
TGI (HOP-62 NSCLC): > 100 µM
TGI (MDA-MB-231 breast): > 100 µM
TGI (DU-145 prostate): > 100 µM
TGI (NCI/ADR-RES ovarian): > 100 µM
TGI (SNB-75 CNS): > 100 µM

COc1ccc(/C=C2\CN(C)Cc3c2nc(N)nc3-c2ccc(OC)cc2)cc1
TGI (M14 melanoma): > 100 µM
TGI (CAKI-1 renal): > 100 µM
TGI (SF-539 CNS): > 100 µM
TGI (HOP-62 NSCLC): > 100 µM
TGI (SNB-75 CNS): > 100 µM

CCC(C)[C@H](NC(=O)[C@H](Cc1ccccc1)NC(=O)N(CC)c1ccccc1)C(=O)N[C@@H](CC(C)C)C(=O)OC (some centres undefined)
TGI (M14 melanoma): > 100 µM
TGI (CAKI-1 renal): > 100 µM
TGI (SF-539 CNS): 93.8 µM
TGI (T-47D breast): > 100 µM
TGI (HOP-62 NSCLC): > 100 µM
TGI (MDA-MB-231 breast): > 100 µM
TGI (DU-145 prostate): > 100 µM
TGI (NCI/ADR-RES ovarian): > 100 µM
TGI (SNB-75 CNS): > 100 µM

CN(C)CC(/C(Cc1ccccc1)=N\NC(=O)C[n+]1ccccc1)c1ccccc1 (centres undefined)
TGI (SR leukemia): > 100 µM
TGI (M14 melanoma): > 100 µM
TGI (CAKI-1 renal): > 100 µM
TGI (SF-539 CNS): > 100 µM
TGI (HOP-62 NSCLC): > 100 µM
TGI (SNB-75 CNS): > 100 µM

COC(=O)c1cn(CCCC(=O)O)nn1
TGI (CAKI-1 renal): > 100 µM
TGI (SF-539 CNS): > 100 µM
TGI (T-47D breast): > 100 µM
TGI (HOP-62 NSCLC): > 100 µM
TGI (MDA-MB-231 breast): > 100 µM
TGI (DU-145 prostate): > 100 µM
TGI (NCI/ADR-RES ovarian): > 100 µM
TGI (SNB-75 CNS): > 100 µM

O=C1CSC2(CC(/C=C/c3ccccc3)=NN2c2cccc(S(=O)(=O)O)c2)N1c1nc2ccccc2s1 (centres undefined)
TGI (SR leukemia): 61 µM
TGI (M14 melanoma): > 100 µM
TGI (CAKI-1 renal): > 100 µM
TGI (SF-539 CNS): > 100 µM
TGI (T-47D breast): 52.5 µM
TGI (MDA-MB-231 breast): 47.8 µM
TGI (DU-145 prostate): 54.4 µM
TGI (NCI/ADR-RES ovarian): > 100 µM
TGI (SNB-75 CNS): 59.2 µM

COc1cc2c(cc1OCCCN1CCN(CCCOc3cc4c(cc3OC)C(=O)N3CCC[C@H]3C=N4)CC1)C=CC(C)(C)O2
GI50 (M14 melanoma): 1.34 µM
TGI (M14 melanoma): 2.62 µM
GI50 (CAKI-1 renal): 0.827 µM
TGI (CAKI-1 renal): 2.12 µM
GI50 (SF-539 CNS): 1.26 µM
TGI (SF-539 CNS): 2.51 µM
GI50 (T-47D breast): 0.792 µM
TGI (T-47D breast): 2.43 µM
GI50 (HOP-62 NSCLC): 1.25 µM
TGI (HOP-62 NSCLC): 2.5 µM
GI50 (MDA-MB-231 breast): 1.31 µM
TGI (MDA-MB-231 breast): 2.58 µM
GI50 (DU-145 prostate): 0.889 µM
TGI (DU-145 prostate): 2.1 µM
GI50 (NCI/ADR-RES ovarian): 2.41 µM
TGI (NCI/ADR-RES ovarian): 5.31 µM
GI50 (SNB-75 CNS): 1.26 µM
TGI (SNB-75 CNS): 2.74 µM

Cc1c2cc[nH]c(C(F)(F)F)c2cc2c1nc1ccccc12
TGI (CAKI-1 renal): > 125 µM
TGI (SF-539 CNS): > 125 µM
TGI (HOP-62 NSCLC): > 125 µM
TGI (NCI/ADR-RES ovarian): > 125 µM
TGI (SNB-75 CNS): 108 µM

Cc1ccc(C)n1-c1ccccc1C1SCCCS1
TGI (M14 melanoma): > 100 µM
TGI (CAKI-1 renal): > 100 µM
TGI (SF-539 CNS): > 100 µM
TGI (HOP-62 NSCLC): > 100 µM
TGI (MDA-MB-231 breast): > 100 µM
TGI (DU-145 prostate): > 100 µM
TGI (NCI/ADR-RES ovarian): > 100 µM
TGI (SNB-75 CNS): > 100 µM

C1CC2=C(C1)[Se]C(=C1Sc3nsnc3S1)[Se]2
TGI (M14 melanoma): > 100 µM
TGI (CAKI-1 renal): > 100 µM
TGI (SF-539 CNS): > 100 µM
TGI (T-47D breast): > 100 µM
TGI (HOP-62 NSCLC): > 100 µM
TGI (MDA-MB-231 breast): > 100 µM
TGI (DU-145 prostate): > 100 µM
TGI (NCI/ADR-RES ovarian): > 100 µM
TGI (SNB-75 CNS): > 100 µM

CN1C/C(=C\c2cccs2)C2=NC(=S)NC(c3cccs3)C2C1 (centres undefined)
TGI (SR leukemia): 54.2 µM
TGI (M14 melanoma): > 100 µM
TGI (CAKI-1 renal): > 100 µM
TGI (T-47D breast): 84.5 µM
TGI (HOP-62 NSCLC): > 100 µM
TGI (MDA-MB-231 breast): > 100 µM
TGI (DU-145 prostate): > 100 µM
TGI (NCI/ADR-RES ovarian): > 100 µM

O=C(O)CCCl
TGI (SR leukemia): > 5000 µM
TGI (M14 melanoma): > 5000 µM
TGI (CAKI-1 renal): > 5000 µM
TGI (SF-539 CNS): > 5000 µM
TGI (HOP-62 NSCLC): > 5000 µM
TGI (SNB-75 CNS): > 5000 µM

c1ccc(CNC2CC(NCc3ccccn3)CC(NCc3ccccn3)C2)nc1 (centres undefined)
GI50 (M14 melanoma): 3.15 µM and 1.39 µM and 2.35 µM
TGI (M14 melanoma): 10.3 µM and 8.32 µM and 5.31 µM
GI50 (CAKI-1 renal): 4.6 µM and 16.3 µM and 4.35 µM
TGI (CAKI-1 renal): 28 µM and 25 µM and 17.2 µM
GI50 (SF-539 CNS): 1.98 µM and 4.74 µM and 3.22 µM
TGI (SF-539 CNS): 10.1 µM and 10.7 µM and 15.7 µM
GI50 (T-47D breast): 6.64 µM
TGI (T-47D breast): 21.5 µM and 25 µM and 25.6 µM
TGI (HOP-62 NSCLC): 20.8 µM and 20.4 µM and 23 µM
GI50 (MDA-MB-231 breast): 2.13 µM and 5.66 µM and 2.08 µM
TGI (MDA-MB-231 breast): 5.21 µM and 12.5 µM and 4.56 µM
TGI (DU-145 prostate): 8.52 µM and 17.1 µM
GI50 (NCI/ADR-RES ovarian): > 100 µM
TGI (NCI/ADR-RES ovarian): > 100 µM
TGI (SNB-75 CNS): 9.59 µM and 16 µM

CCc1nn(CN2CCN(C)CC2)c(=S)n1/N=C\c1ccc(-c2ccc([N+](=O)[O-])cc2)o1
TGI (SR leukemia): > 100 µM
TGI (M14 melanoma): > 100 µM
TGI (CAKI-1 renal): > 100 µM
TGI (T-47D breast): 68.5 µM
TGI (HOP-62 NSCLC): > 100 µM
TGI (MDA-MB-231 breast): > 100 µM
TGI (DU-145 prostate): > 100 µM
TGI (NCI/ADR-RES ovarian): 73.2 µM

COc1ccc(Cn2c(C)nc3c2C(=O)c2ccccc2C3=O)cc1
TGI (SR leukemia): 10.4 µM
TGI (M14 melanoma): 23.5 µM
TGI (SF-539 CNS): 38.2 µM
TGI (HOP-62 NSCLC): 51.7 µM
TGI (SNB-75 CNS): 71.9 µM

COc1cc(/C=C/C(=O)OCC23CC[C@@]4(C(=O)O)CCC(C)[C@H](C)C4C2=CCC2[C@@]4(C)CC[C@H](O)C(C)(C)C4CC[C@]23C)ccc1O (some centres undefined)
TGI (SR leukemia): 61.3 µM
TGI (M14 melanoma): 49.5 µM
TGI (CAKI-1 renal): > 100 µM
TGI (SF-539 CNS): 31.4 µM
TGI (T-47D breast): > 100 µM
TGI (HOP-62 NSCLC): 28.6 µM
TGI (MDA-MB-231 breast): > 100 µM
TGI (DU-145 prostate): 23.2 µM
TGI (NCI/ADR-RES ovarian): 44.9 µM

FC(F)(F)c1ccc(-c2nc(-c3nc4cc(Cl)c(Cl)cc4[nH]3)c3ccccn23)cc1
GI50 (SR leukemia): > 100 µM
TGI (SR leukemia): > 100 µM
GI50 (T-47D breast): 4.06 µM
TGI (T-47D breast): > 100 µM
GI50 (HOP-62 NSCLC): 3.04 µM
TGI (HOP-62 NSCLC): 16.3 µM
GI50 (MDA-MB-231 breast): 2.49 µM
TGI (MDA-MB-231 breast): > 100 µM
GI50 (NCI/ADR-RES ovarian): 6.1 µM
TGI (NCI/ADR-RES ovarian): > 100 µM
GI50 (SNB-75 CNS): 1.45 µM
TGI (SNB-75 CNS): 4.3 µM

CNC(=O)c1ccccc1-[s+]1c2ccccc2c(=O)n1C (centres undefined)
TGI (M14 melanoma): > 100 µM
TGI (CAKI-1 renal): > 100 µM
TGI (SF-539 CNS): > 100 µM
TGI (T-47D breast): > 100 µM
TGI (HOP-62 NSCLC): > 100 µM
TGI (MDA-MB-231 breast): > 100 µM
TGI (DU-145 prostate): > 100 µM
TGI (NCI/ADR-RES ovarian): > 100 µM

C=C1C(=O)OC2/C=C(\C)C(OC(C)=O)C3OC3C(C)(O)CC(OC(=O)/C(C)=C/C)C12 (centres undefined)
TGI (SR leukemia): 23.2 µM
TGI (M14 melanoma): 16 µM
TGI (CAKI-1 renal): 5.94 µM
TGI (SF-539 CNS): 14.2 µM
TGI (HOP-62 NSCLC): 37.4 µM
TGI (SNB-75 CNS): 97.4 µM

C1=C(c2ccccc2)CN(c2ccccc2)OC1
TGI (SR leukemia): > 100 µM
TGI (M14 melanoma): > 100 µM
TGI (CAKI-1 renal): > 100 µM
TGI (SF-539 CNS): > 100 µM
TGI (HOP-62 NSCLC): > 100 µM
TGI (SNB-75 CNS): > 100 µM

O=C(Nc1c(O)[nH]c(=S)[nH]c1=O)c1ccccn1
TGI (SR leukemia): > 100 µM
TGI (M14 melanoma): > 100 µM
TGI (CAKI-1 renal): > 100 µM
TGI (SF-539 CNS): > 100 µM
TGI (HOP-62 NSCLC): > 100 µM
TGI (SNB-75 CNS): > 100 µM

O=C(COc1ccc(OCC(=O)N2C(=O)CC(=O)N(c3ccccc3)C2=S)cc1)N1C(=O)CC(=O)N(c2ccccc2)C1=S
TGI (M14 melanoma): > 100 µM
TGI (CAKI-1 renal): > 100 µM
TGI (MDA-MB-231 breast): > 100 µM
TGI (DU-145 prostate): > 100 µM
TGI (NCI/ADR-RES ovarian): > 100 µM
TGI (SNB-75 CNS): > 100 µM

c1csc(-c2ccc(-c3ccc(-c4ccc(-c5cccs5)s4)s3)s2)c1
TGI (SR leukemia): > 100 µM
TGI (M14 melanoma): > 100 µM
TGI (CAKI-1 renal): > 100 µM
TGI (SF-539 CNS): > 100 µM
TGI (HOP-62 NSCLC): > 100 µM
TGI (DU-145 prostate): > 100 µM
TGI (NCI/ADR-RES ovarian): > 100 µM
TGI (SNB-75 CNS): > 100 µM
